Measurements taken from patent publication US20020151734A1, “12-HETrE analogs and methods of use thereof” (priority 2001, published 2002).
*1 amine or outer side, *2 acyl side, *3 side chain or, on linkers, in order; H or OH if unused. Where a SMILES comes first, the peptide text is derived from it. Bridges are numbered along the chain shown (N, C = ends). Roman numbers before positions name the chains, in order. [ ]: non-standard residue; d: D form. Actinocin(9to1) = Cc1c2oc3c(C)ccc(C(=O)[*:1])c3nc-2c(C(=O)[*:2])c(N)c1=O; NMeV = CN[C@H](C(=O)O)C(C)C; Sar = CNCC(=O)O

Tests used:
[1] = test system: VEGF mRNA; experiment: VEGF mRNA levels in microvessel endothelial (RLMVE) cells by slot blot analysis; format: cell-based; conditions: for effect on 12(R)-HETrE-induced VEGF mRNA/expression: co-incubation with 12(R)-HETrE
Method: The antagonistic or agonistic activity of 12-HETrE analogs may be measured by measuring increases in vascular cadothelial growth factor (VEGF) mRNA following incubation of microvessel endothelial cells (RLMVE cells) with 12(R)-HETrE and other compounds followed by slot blot analysis, as described in the Examples. […] In this way the 12-HETrE analogs 8-(R) and 8-(S) were determined to be 12(R)-HETrE agonists.
12(R)-HETrE increased VEGF mRNA levels in a time-dependent manner. A 5-fold increase over the control levels was observed 45 min after addition of 12(R)-HETrE. These levels gradually declined to the control levels by 48 h. […] 12(R)-HETrE increased VEGF mRNA in a concentration-dependent manner with 0.1 nM having the maximal effect.
Human VEGF cDNA was used as a probe for slot blot analysis to measure increases in VEGF mRNA following incubation of RLMVE cells with 12(R)-HETrE and 12-HETrE analogs. To measure agonistic activity compounds were added to the incubation medium at concentration of 0.1, 1, and 10 nM and their effect on VEGF mRNA levels after 45 min incubation was measured in comparison to that of 12(R)-HETrE at the same concentration. To measure antagonistic activity, compounds at the above concentrations were added with 0.1 nM 12(R)-HETrE and 45 min later RNA extracted samples were processed for slot blot analysis.

[2] = test system: RLME cells; experiment: Inhibition of [^3H]12(R)-HETrE binding to RLME cells; conditions: analog 1 μM; for % Inhibition of [^3H]12(R)-HETrE binding: [^3H]12(R)-HETrE at 10 nM, RLME cells; for Result (agonist or antagonist): classed from % inhibition of [^3H]12(R)-HETrE binding
Method: Alternatively, the antagonistic or agonistic activity of 12-HETrE analogs may be measured by determining the percentage of inhibition of [^3H]12(R)-HETrE binding at 10 nM to RLME cells. Generally, inhibition of [^3H]12(R)-HETrE binding greater than 50% is indicative of agonists and inhibition lower than 50% is indicative of antagonists.

| SMILES | % Inhibition of [^3H]12(R)-HETrE binding [2] | Result (agonist or antagonist) [2] | also measured |
| --- | --- | --- | --- |
| C[C@@H]1C[C@@H]([C@H](O)CC2CC(=O)NC(=O)C2)C(=O)[C@@H](C)C1 [cycloheximide] | – | – | effect on 12(R)-HETrE-induced VEGF mRNA/expression [1]: did not affect |
| CCCCC/C=C\C[C@@H](O)CC/C=C\C/C=C\CCCC(=O)O [12(S)-HETrE, 12(S)-(5Z,8Z,14Z)-12-hydroxyeicosa-5,8,14-trienoic acid, reference compound] | 62.4% | Agonist (inhibition of [^3H]12(R)-HETrE binding greater than 50% is indicative of agonists) | – |
| CCCCC/C=C\C[C@H](O)CC/C=C\C/C=C\COCC(=O)O [4-a-(R), (9(R)-Hydroxyheptadeca-2(Z),5(Z),11(Z)-trienyloxy)acetic acid] | 48.0% | Antagonist (inhibition lower than 50% is indicative of antagonists) | – |
| CCCCC/C=C\C[C@H](O)CC/C=C\C/C=C\CCCC(=O)NS(C)(=O)=O [1-a-(R), N-(Methylsulfonyl)-12(R)-hydroxyeicosa-5(Z),8(Z),14(Z)-trienamide] | 62.6% | Agonist (inhibition of [^3H]12(R)-HETrE binding greater than 50% is indicative of agonists) | – |
| CCCCC/C=C\C[C@H](O)CC/C=C\CCCCCCC(=O)O [5-(R), 12(R)-Hydroxyeicosa-8(Z),14(Z)-dienoic acid] | 92.4% | Agonist (inhibition of [^3H]12(R)-HETrE binding greater than 50% is indicative of agonists) | – |
| CCCCC/C=C\C[C@@H](O)CC/C=C\CCCCCCC(=O)O [5-(S), 12(S)-Hydroxyeicosa-8(Z),14(Z)-dienoic acid] | 54.5% | Agonist (inhibition of [^3H]12(R)-HETrE binding greater than 50% is indicative of agonists) | – |
| CCCCC/C=C\C[C@H](CC/C=C\C/C=C\CCCC(=O)O)OC [2-(S), 12(S)-Methoxyeicosa-5(Z),8(Z),14(Z)-trienoic acid] | 34.2% | Antagonist (inhibition lower than 50% is indicative of antagonists) | – |
| CCCCC/C=C\C[C@H](O)CC/C=C\CC#CCCCC(=O)O [3-(R), 12(R)-hydroxyeicosa-8(Z),14(Z)-dien-5-ynoic acid] | 58.1% | Agonist (inhibition of [^3H]12(R)-HETrE binding greater than 50% is indicative of agonists) | – |
| CCCCC/C=C\C[C@@H](O)CC/C=C\CC#CCCCC(=O)O [3-(S), 12(S)-Hydroxyeicosa-8(Z),14(Z)-dien-5-ynoic acid] | 23.6% | Antagonist (inhibition lower than 50% is indicative of antagonists) | – |
| CCCCCCCC[C@@H](O)CC/C=C\C/C=C\CCCC(=O)O [6-(R), 12(R)-Hydroxyeicosa-5(Z),8(Z)-dienoic acid] | 87.2% | Agonist (inhibition of [^3H]12(R)-HETrE binding greater than 50% is indicative of agonists) | – |
| CCCCC/C=C\C[C@H](O)CCCCC/C=C\CCCC(=O)O [7-(R), 12(R)-Hydroxy-eicosa-5(Z),14(Z)-dienoic acid] | 88.7% | Agonist (inhibition of [^3H]12(R)-HETrE binding greater than 50% is indicative of agonists) | – |
| CCCCC/C=C\C[C@@H](O)CC/C=C\C/C=C\COCC(=O)O [4-a-(S)] | 24.3% | Antagonist (inhibition lower than 50% is indicative of antagonists) | – |
| CCCCC/C=C\C[C@@H](CC/C=C\C/C=C\CCCC(=O)O)OC [2-(R), 12(R)-Methoxyeicosa-5(Z),8(Z),14(Z)-trienoic acid] | 38.6% | Antagonist (inhibition lower than 50% is indicative of antagonists) | – |
| CCCCCCCC[C@H](O)CC/C=C\C/C=C\CCCC(=O)O [6-(S), 12(S)-Hydroxyeicosa-5(Z),8(Z)-dienoic acid] | 73.0% | Agonist (inhibition of [^3H]12(R)-HETrE binding greater than 50% is indicative of agonists) | – |
| Cc1c2oc3c(C)ccc(C(=O)N[C@@H]4C(=O)N[C@H](C(C)C)C(=O)N5CCC[C@H]5C(=O)N(C)CC(=O)N(C)[C@@H](C(C)C)C(=O)O[C@@H]4C)c3nc-2c(C(=O)N[C@@H]2C(=O)N[C@H](C(C)C)C(=O)N3CCC[C@H]3C(=O)N(C)CC(=O)N(C)[C@@H](C(C)C)C(=O)O[C@@H]2C)c(N)c1=O [actinomycin D] (I: T[dV]P[Sar][NMeV] / II: T[dV]P[Sar][NMeV]; ester I:1-I:C, II:1-II:C; linker I:N-II:N via Actinocin(9to1)) | – | – | effect on 12(R)-HETrE-induced VEGF mRNA/expression [1]: abolished |
| CCCCCC=CC[C@H](O)CCC=CCC=CCCCC(=O)O [12(R)-HETrE, 12(R)-hydroxy-5,8,14-eicosatrienoic acid] | 69.8% | – | time by which VEGF mRNA levels declined to the control levels ([1]; 0.1 nM): ≤ 48 h; increase in VEGF mRNA over the control levels ([1]; 0.1 nM, 45 min after addition): 5 fold; concentration having the maximal effect on VEGF mRNA ([1]; concentration-dependent increase): 0.1 nM |
| CCCCC/C=C\C[C@@H](O)CCCCC/C=C\CCCC(=O)O [7-(S), 12(S)-Hydroxyeicosa-5,(Z)14(Z)-dienoic acid] | 69.5% | Agonist (inhibition of [^3H]12(R)-HETrE binding greater than 50% is indicative of agonists) | – |
| CCCCC/C=C\C[C@@H](O)CC/C=C\C/C=C\CCCC(=O)NS(C)(=O)=O [1-a-(S), N-(Methylsulfonyl)-12(S)-hydroxyeicosa-5(Z),8(Z),14(Z)-trienamide] | 33.3% | Antagonist (inhibition lower than 50% is indicative of antagonists) | increase in VEGF mRNA (densitometry) ([1]; 1 nM, 45 min incubation): 5 fold; agonistic activity by VEGF mRNA increase ([1]; slot blot analysis): significant agonistic activity |
